Assay results published in patent US20240116945A1, “EXATECAN-DERIVED TOPOISOMERASE-1 INHIBITORS PHARMACEUTICAL COMPOSITIONS, AND USES THEREOF” (Merck Sharp & Dohme LLC, priority 2022, published 2024).
Counter-ions that a name gives are not always drawn.

Test system: Jeko-1 cells
Assay: CellTiter-Glo 2.0 Cytotoxicity Assay
Assay type: cell-based
Settings: Homo sapiens, JeKo-1, read-out: Jeko-1 EC50 (nM), Jeko-1 cells, 3000 cells/well; compounds added Day 1; CellTiter-Glo 2.0 luminescence read on Day 4 or 5
Description: Reaction progress and synthetic intermediate analysis were assessed by LCMS (UV detection with ESI, APCI, or other mass detection) when applicable using a MeCN/water gradient with either TFA, formic acid, or NH4HCO3 modifier. Silica gel and reverse-phase flash column chromatography were conducted with commercially available pre-packed columns. Reverse-phase preparative HPLC purification was performed on preparative HPLC instruments with UV and MS detection using a MeCN/water gradient with either TFA, formic acid, or NH4OH modifier. ^1H NMR spectra were collected at room temperature, and chemical shifts are reported in ppm relative to the residual proteo-solvent signals, and multiplicities, coupling constants (where applicable), and signal integrations are listed parenthetically. Unless otherwise noted, all EC50 data presented in tables refers to the CellTiter-Glo® 2.0 Cytotoxicity Assay that is described in the Biological Assay section.
CellTiter-Glo® 2.0 Cytotoxicity Assay
Step 1: Seed 384-Well Plates for Assay (45 μL Per Well) on Day 0
Jeko-1 cells were quickly thawed in a cryo-vial by incubating them in a 37° C. water bath for <1 min until there is just a small bit of ice left in the vial. The vial was promptly removed and wiped down with 70% ethanol. The cells were transferred from the vial to a sterile centrifuge tube containing 8 mL of pre-warmed cell culture medium. The vial was flushed with an additional 1 mL of medium to ensure complete transfer of cells to the centrifuge tube. The cells were then centrifuged at 150×g for 5 minutes. The supernatant was aspirated, and the cell pellet was resuspended in 10-20 mL cell culture medium. Cells were counted using Vi-cell and prepared 6.6×10^4 cells/ml, 3000 cells/45 μL per well. Then added 45 μL/well of cells into Corning® 384-well Low Flange White Flat Bottom Polystyrene TC-treated Microplates (Corning, Cat #3570) using Standard Cassette Combi (if needed, dispense 1 dummy plate at 20 μL to help normalize Combi, using medium speed). The plates were spun down at 150×g for 30 seconds.
Step 2: Add Compounds on Day 1
The compound plates and reference compound stock were taken out and allowed to thaw at RT. The tubes were centrifuged at 2000×g for 30 seconds. The 10× Intermediate assay plates (Greiner plate, Cat #781280) were prepared using an Echo liquid handler. Proper buffer (HBSS (Gibco, Cat #14025-092)+10 mM HEPES (Gibco, Cat #15630-080)+0.1% BSA (Sigma, Cat #A9576)) were used to make serial dilutions. Media (no cells) was used for Max_E. Compound (5 μL of 10×) was transferred from intermediate plate to assay plate using a Bravo liquid handler using a very slow speed so the cell monolayer wasn't disturbed. The plates were spun down at 150×g for 30 seconds.
Step 3: CellTiter-Glo 2.0 Assay (Promega, Cat #G9242) on Day 4 or 5 (CellTiter-Glo Kit Stored at −70° C.)
The CellTiter-Glo® 2.0 Reagent was thawed at 4° C. overnight, taking care not to expose the reagent to temperatures above 25° C.). The kit was equilibrated to RT for approximately 30 minutes. CellTiter-Glo® 2.0 Reagent (20 μl) was added to 50 μl of medium containing cells using Standard Cassette Combi. The contents were mixed for 2-3 minutes on an orbital shaker to induce cell lysis. The plates were spun down at 150×g for 30 seconds. The plates were allowed to incubate at RT for 5 minutes to stabilize the luminescent signal.
Illustrative compounds of the present disclosure were tested in the above assay in Example 15, and results are provided in the Table 9 below: […]

**Q.** `CC[C@@]1(O)C(=O)OCc2c1cc1n(c2=O)Cc2c-1nc1cc(F)c(C)c3c1c2[C@@H](NC(=O)[C@H](O)CO)CC3` [Compound 29] was tested. Which EC50 did it give?
**A.** 3.7 nM

**Q.** Which EC50 does the source give for `CC[C@@]1(O)C(=O)OCc2c1cc1n(c2=O)Cc2c-1nc1cc(F)c(C)c3c1c2[C@@H](NC(=O)C(O)C1(CO)CC1)CC3` (stereo partly drawn) [Compound 30, N-((1S,9S)-9-ethyl-5-fluoro-9-hydroxy-4-methyl-10,13-dioxo-2,3,9,10,13,15-hexahydro-1H,12H-benzo[de]pyrano[3′,4′: 6,7]indolizino[1,2-b]quinolin-1-yl)-2-hydroxy-2-(1-(hydroxymethyl)cyclopropyl)acetamide] here?
**A.** 2.5 nM

**Q.** With `CC[C@@]1(O)C(=O)OCc2c1cc1n(c2=O)Cc2c-1nc1cc(F)c(C)c3c1c2[C@@H](NC(=O)[C@@H](CCO)OC)CC3` [Compound 31, (R)—N-((1S,9S)-9-ethyl-5-fluoro-9-hydroxy-4-methyl-10,13-dioxo-2,3,9,10,13,15-hexahydro-1H,12H-benzo[de]pyrano[3′,4′: 6,7]indolizino[1,2-b]quinolin-1-yl)-4-hydroxy-2-methoxybutanamide] as the compound, how does the EC50 read?
**A.** 4.1 nM

**Q.** Which EC50 does the source give for `CC[C@@]1(O)C(=O)OCc2c1cc1n(c2=O)Cc2c-1nc1cc(F)c(C)c3c1c2[C@@H](NC(=O)[C@@H](C)CO)CC3` [Compound 32, (S)—N-((1S,9S)-9-ethyl-5-fluoro-9-hydroxy-4-methyl-10,13-dioxo-2,3,9,10,13,15-hexahydro-1H,12H-benzo[de]pyrano[3′,4′: 6,7]indolizino[1,2-b]quinolin-1-yl)-3-hydroxy-2-methylpropanamide] here?
**A.** 1.4 nM

**Q.** How did the EC50 turn out when `CC[C@@]1(O)C(=O)OCc2c1cc1n(c2=O)Cc2c-1nc1cc(F)c(C)c3c1c2[C@@H](NC(=O)[C@H](C)CO)CC3` [Compound 33] was run?
**A.** 3.8 nM

**Q.** Which EC50 does the source give for `CC[C@@]1(O)C(=O)OCc2c1cc1n(c2=O)Cc2c-1nc1cc(F)c(C)c3c1c2[C@@H](NC(=O)C(C)(C)CCO)CC3` [Compound 38, N-((1S,9S)-9-ethyl-5-fluoro-9-hydroxy-4-methyl-10,13-dioxo-2,3,9,10,13,15-hexahydro-1H,12H-benzo[de]pyrano[3′,4′: 6,7]indolizino[1,2-b]quinolin-1-yl)-4-hydroxy-2,2-dimethylbutanamide] here?
**A.** 4.6 nM

**Q.** `CC[C@@]1(O)C(=O)OCc2c1cc1n(c2=O)Cc2c-1nc1cc(F)c(C)c3c1c2[C@@H](NC(=O)C(C)(C)N)CC3` [Compound 41, 2-amino-N-((1S,9S)-9-ethyl-5-fluoro-9-hydroxy-4-methyl-10,13-dioxo-2,3,9,10,13,15-hexahydro-1H,12H-benzo[de]pyrano[3′,4′: 6,7]indolizino[1,2-b]quinolin-1-yl)-2-methylpropanamide formate] was tested. Which EC50 did it give?
**A.** 2.3 nM

**Q.** `CC[C@@]1(O)C(=O)OCc2c1cc1n(c2=O)Cc2c-1nc1cc(F)c(C)c3c1c2[C@@H](NC(=O)C(N)CC(C)C)CC3` (stereo partly drawn) [Compound 42] was tested. Which EC50 did it give?
**A.** 5.5 nM

**Q.** Which EC50 does the source give for `CC[C@@]1(O)C(=O)OCc2c1cc1n(c2=O)Cc2c-1nc1cc(F)c(C)c3c1c2[C@@H](NC(=O)[C@H](O)CN)CC3` [Compound 43] here?
**A.** 27 nM

**Q.** `CC[C@@]1(O)C(=O)OCc2c1cc1n(c2=O)Cc2c-1nc1cc(F)c(C)c3c1c2[C@@H](NC(=O)[C@@H](O)CN)CC3` [Compound 44] was tested. Which EC50 did it give?
**A.** 78 nM

**Q.** `CC[C@@]1(O)C(=O)OCc2c1cc1n(c2=O)Cc2c-1nc1cc(F)c(C)c3c1c2[C@@H](NC(=O)[C@@H](N)CO)CC3` [Compound 45, (S)-2-amino-N-((1S,9S)-9-ethyl-5-fluoro-9-hydroxy-4-methyl-10,13-dioxo-2,3,9,10,13,15-hexahydro-1H,12H-benzo[de]pyrano[3′,4′: 6,7]indolizino[1,2-b]quinolin-1-yl)-3-hydroxypropanamide formate] was tested. Which EC50 did it give?
**A.** 27 nM

**Q.** With `CC[C@@]1(O)C(=O)OCc2c1cc1n(c2=O)Cc2c-1nc1cc(F)c(C)c3c1c2[C@@H](NC(=O)[C@H](N)CO)CC3` [Compound 46] as the compound, how does the EC50 read?
**A.** 5 nM

**Q.** Which EC50 does the source give for `CC[C@@]1(O)C(=O)OCc2c1cc1n(c2=O)Cc2c-1nc1cc(F)c(C)c3c1c2[C@@H](NC(=O)C(C)(NC(=O)[C@@H](C)N)C(F)F)CC3` (stereo partly drawn) [Compound 47] here?
**A.** 22 nM

**Q.** Which EC50 does the source give for `CC[C@@]1(O)C(=O)OCc2c1cc1n(c2=O)Cc2c-1nc1cc(F)c(C)c3c1c2[C@@H](NC(=O)C(C)(N)COC)CC3` (stereo partly drawn) [Compound 48] here?
**A.** 8.7 nM

**Q.** With `CC[C@@]1(O)C(=O)OCc2c1cc1n(c2=O)Cc2c-1nc1cc(F)c(C)c3c1c2[C@@H](NC(=O)C(F)(F)CCN)CC3` [Compound 49, 4-amino-N-((1S,9S)-9-ethyl-5-fluoro-9-hydroxy-4-methyl-10,13-dioxo-2,3,9,10,13,15-hexahydro-1H,12H-benzo[de]pyrano[3′,4′: 6,7]indolizino[1,2-b]quinolin-1-yl)-2,2-difluorobutanamide] as the compound, how does the EC50 read?
**A.** 14 nM

**Q.** How did the EC50 turn out when `CC[C@@]1(O)C(=O)OCc2c1cc1n(c2=O)Cc2c-1nc1cc(F)c(C)c3c1c2[C@@H](NC(=O)[C@@H](N)CN)CC3` [Compound 50, (S)-2,3-diamino-N-((1S,9S)-9-ethyl-5-fluoro-9-hydroxy-4-methyl-10,13-dioxo-2,3,9,10,13,15-hexahydro-1H,12H-benzo[de]pyrano[3′,4′: 6,7]indolizino[1,2-b]quinolin-1-yl)propanamide formate] was run?
**A.** 90 nM

**Q.** How did the EC50 turn out when `CC[C@@]1(O)C(=O)OCc2c1cc1n(c2=O)Cc2c-1nc1cc(F)c(C)c3c1c2[C@@H](NCCCO)CC3` [Compound 52] was run?
**A.** 5.1 nM

**Q.** `CC[C@@]1(O)C(=O)OCc2c1cc1n(c2=O)Cc2c-1nc1cc(F)c(C)c3c1c2[C@@H](NCC(=O)NC(C)C)CC3` [Compound 55] was tested. Which EC50 did it give?
**A.** 8.8 nM

**Q.** Which EC50 does the source give for `CC[C@@]1(O)C(=O)OCc2c1cc1n(c2=O)Cc2c-1nc1cc(F)c(C)c3c1c2[C@@H](NCc1ccccc1CO)CC3` [Compound 56] here?
**A.** 5.5 nM

**Q.** For `CC[C@@]1(O)C(=O)OCc2c1cc1n(c2=O)Cc2c-1nc1cc(F)c(C)c3c1c2[C@@H](NCC(C)(F)F)CC3` [Compound 57], which EC50 is on record?
**A.** 6.2 nM

**Q.** `CC[C@@]1(O)C(=O)OCc2c1cc1n(c2=O)Cc2c-1nc1cc(F)c(C)c3c1c2[C@@H](NCC(F)(F)C(F)F)CC3` [Compound 58] was tested. Which EC50 did it give?
**A.** 6.2 nM

**Q.** Which EC50 does the source give for `CC[C@@]1(O)C(=O)OCc2c1cc1n(c2=O)Cc2c-1nc1cc(F)c(C)c3c1c2[C@@H](NC(C)C(F)F)CC3` (stereo partly drawn) [Compound 59] here?
**A.** 5.4 nM

**Q.** `CC[C@@]1(O)C(=O)OCc2c1cc1n(c2=O)Cc2c-1nc1cc(F)c(C)c3c1c2[C@@H](N(C)CC(F)F)CC3` [Compound 60, (1S,9S)-1-((2,2-difluoroethyl)(methyl)amino)-9-ethyl-5-fluoro-9-hydroxy-4-methyl-1,2,3,9,12,15-hexahydro-10H,13H-benzo[de]pyrano[3′,4′: 6,7]indolizino[1,2-b]quinoline-10,13-dione] was tested. Which EC50 did it give?
**A.** 9.6 nM

Same assay, conditions: Homo sapiens; Jeko-1 cells, 3000 cells/well; compounds added Day 1; CellTiter-Glo 2.0 luminescence read on Day 4 or 5; read-out: Jeko-1 EC50

**Q.** `CC[C@@]1(O)C(=O)OCc2c1cc1n(c2=O)Cc2c-1nc1cc(F)c(C)c3c1c2[C@@H](NCCO)CC3` [Compound 51, (1S,9S)-9-ethyl-5-fluoro-9-hydroxy-1-((2-hydroxyethyl)amino)-4-methyl-1,2,3,9,12,15-hexahydro-10H,13H-benzo[de]pyrano[3′,4′: 6,7]indolizino[1,2-b]quinoline-10,13-dione formate] was tested. Which EC50 did it give?
**A.** 3.7 nM
